Bridge positions count the residues as written; N and C are the ends. Square brackets hold non-standard residues; d marks the D form. Peptide text beside a SMILES is read from it. * marks the point of attachment. X1 = O=C(O)CN1CCN(CC(=O)O)CC(Cc2ccc(NC(=S)*)cc2)N(CC(=O)O)CC1; NMeF = CN[C@@H](Cc1ccccc1)C(=O)O
Biological target: Granzyme B (Homo sapiens, UniProt P10144)
Experiment: Binding affinity to human granzyme B assessed as equilibrium dissociation constant by SPR method

Granzyme B, sequence (P10144 whole entry): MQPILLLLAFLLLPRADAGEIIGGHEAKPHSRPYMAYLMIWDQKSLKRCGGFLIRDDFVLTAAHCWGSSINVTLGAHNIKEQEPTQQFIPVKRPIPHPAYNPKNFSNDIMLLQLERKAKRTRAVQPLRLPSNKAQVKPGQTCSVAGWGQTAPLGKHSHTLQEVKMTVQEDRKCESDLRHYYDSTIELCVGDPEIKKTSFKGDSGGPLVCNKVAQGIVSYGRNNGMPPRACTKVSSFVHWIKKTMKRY

## CC(C)[C@@H]1NC(=O)[C@H](CC(=O)O)NC(=O)[C@H](Cc2ccc(O)cc2)NC(=O)[C@H](Cc2ccc(O)cc2)NC(=O)[C@H](Cc2ccccc2)N(C)C(=O)[C@H](Cc2ccccc2)N(C)C(=O)[C@H](Cc2ccccc2)NC(=O)CSC[C@@H](C(=O)NCC(=O)NCC(=O)N[C@@H](CCCCNC(=S)Nc2ccc(CC3CN(CC(=O)O)CCN(CC(=O)O)CCN3CC(=O)O)cc2)C(N)=O)NC(=O)[C@H](Cc2c[nH]cn2)NC(=O)[C@H](Cc2ccccc2)N(C)C(=O)[C@H](Cc2ccc(O)cc2)NC(=O)[C@H](C(C)C)NC(=O)[C@H](CC(=O)O)NC(=O)[C@H](C(C)C)NC(=O)[C@H](CC(=O)O)NC1=O (stereo partly specified) ({CH2CO}-F[NMeF][NMeF]YYDVDVDVY[NMeF]HCGGK(X1)-NH2; thioether N-15)
  Kd: 1.1 nM
